Measured values reported in patent publication US20240110004A1 (Northwestern University, priority 2022, published 2024).
Where no end group is shown, it is not given here.

Assays:
HdhQ111 cells = experiment: Mitochondrial fragmentation assay; format: cell-based, mouse; conditions: compared to vehicle treatment group, at least 100 cells per group
Method: FIG. 8: Mitochondrial fragmentation assay. The percentage of HdhQ111 cells with fragmented mitochondria relative to the total number of cells was quantitated. At least 100 cells per group were counted.
FIG. 9: Mitochondrial fragmentation assay. Mitochondrial morphology was determined by staining cells with anti-Tom20 antibody. Nuclei: Hoechst 33342 stain. […] Scale Bars: 60 μm; 12 μm for inset.
Mitochondrial Fragmentation Methods: As preventing the fragmentation of the mitochondria is important for maintaining the health of striatal cells in the HD in vitro model, the PLP's abilities were tested in this regard.

R6/2 mice = experiment: In vivo efficacy in R6/2 Huntington's disease mice, behavioral analysis, body weight, survival; parameters: species or system mouse; conditions: for open field horizontal activity / open field total distance / open field vertical activity: 13 weeks; for survival: over the saline control; for average percent of body weight gain: week 13
Description: FIG. 31A-31F: For each of FIG. 31A-31F, data is shown reflecting the results of 3 separate studies (i.e., “Batch 1+2+3”) conducted under identical conditions; “veh” refers to the vehicle saline control. For each of FIG. 31A-31C at week 6, WT: n=15; WT+P1: n=15; R62 veh: n=22; R62+HV3-TAT: n=32; and R62+P1: n=16. For each of FIG. 31D-31F at week 6, WT: n=15; WT+P1: n=15; R62 veh: n=17; R62+HV3-TAT: n=30; and R62+P1: n=13. FIG. 31A depicts the average percent of body weight gain for mice subjected to each treatment. From top to bottom, the week 13 data points correspond to: WT+P1 (˜43%); WT (˜39%); R62+P1 (˜1%); R62+HV3-TAT (˜ […]); and R62 (˜-9%). FIG. 31B depicts the survival rate for each treatment group over time. 100% survival rate for WT veh and WT+P1. R62+P1 as compared to R62 veh: p-value=0.0454; R62+HV3-TAT as compared to R62 veh: p-value=0.0201. FIG. 31C depicts the average hindlimb clasping score for each treatment group at weeks 11, 12, and 13. For each week: R62 mice treated with vehicle (left), R62 treated with HV3-TAT (middle), and R62 treated with P1 (right). p-values in week 11: 0.0145 (top—R62 veh as compared to R62+P1), 0.0432 (middle—R62 veh as compared to R62+HV3-TAT), and 0.6051 (bottom—R62+HV3-TAT as compared to R62+P1); week 12: 0.0037 (top—R62 veh as compared to R62+P1), 0.0263 (middle—R62 veh as compared to R62+HV3-TAT), and 0.3957 (bottom—R62+HV3-TAT as compared to R62+P1); week 13: 0.0031 (top—R62 veh as compared to R62+P1), 0.0177 (middle—R62 veh as compared to R62+HV3-TAT), and 0.4938 (bottom—R62+HV3-TAT as compared to R62+P1). FIG. 31D depicts results from the open field tests representing the total distance traveled at final data collection. p-value for: WT veh as compared to R62 veh: <0.0001; WT+P1 as compared to R62 veh: <0.0001; R62 veh as compared to R62+HV3-TAT: 0.0021; R62 veh as compared to R62+P1: <0.0001; R62+HV3-TAT as compared to R62+P1: 0.1486. FIG. 31E depicts results from the horizontal activity tests. p-value for: WT veh as compared to R62 veh: <0.0001; WT+P1 as compared to R62 veh: <0.0001; R62 veh as compared to R62+HV3-TAT: 0.0262; R62 veh as compared to R62+P1: <0.0001; R62+HV3-TAT as compared to R62+P1: 0.0083. FIG. 31F depicts results from the vertical activity tests. P-value for: WT veh as compared to R62 veh: 0.0004; WT+P1 as compared to R62 veh: <0.0001; R62 veh as compared to R62+HV3-TAT: 0.2879; R62 veh as compared to R62+P1: 0.0375; R62+HV3-TAT as compared to R62+P1: 0.6222.
In vivo Efficacy Methods—Behavioral Analysis: All experiments in animals were conducted in accordance with protocols approved by the Institutional Animal Care and Use Committee of Northwestern University and were performed based on the National Institutes of Health Guide for the Care and Use of Laboratory Animals. HV3-TAT at its operating dose, saline (negative control), and P1 at a dose of […] (3 mg/kg/day with respect to peptide) were administered to Huntington's phenotype R6/2 (sometimes referred to herein as R62) mice and WT mice via Alzet osmotic pump from 6 to 13 weeks of age. The accepted HD phenotype is a decrease in motor coordination, general motility and body weight in male mice as they age from 5 to 13 weeks. A key phenotype of R6/2 mice is hindlimb clasping. Accordingly, hindlimb clasping was assessed with the tail suspension test weekly from the ages 7 to 13 weeks in R6/2 mice and WT littermates. Mice were suspended by the tail for 60 sec and the latency for the hindlimbs or all four paws to clasp was recorded using the following score system: clasping over 10 sec, score 3; 5-10 sec, score 2; 0-5 sec, score 1; 0 sec, score 0. The body weight and survival rate of HD mice and WT littermates were also recorded throughout the study period. For open field motor activity, gross locomotor activity was assessed in R6/2 mice and age-matched WT littermates at the ages of 13 weeks. […]

Substance | fragmented mitochondria (HdhQ111 cells) | open field horizontal activity (R6/2 mice) | open field total distance (R6/2 mice) | open field vertical activity (R6/2 mice) | survival (R6/2 mice) | average percent of body weight gain (R6/2 mice) | hindlimb clasping (R6/2 mice; tail suspension test, weekly)
P1: PLP homopolymer having peptide side chains of SEQ ID: 1 (HVLVMSATRR), made by ROMP of norbornene peptide monomer M1 (also: side chains of polynorbornene homopolymer (PLP, ROMP of norbornene peptide monomer)) | significantly fewer fragmented mitochondria | improved | improved | improved | significantly extending survival | ~1% | 
peptide sequence HVLVMCAT (HV3) coupled to the cell penetrating, HIV-derived TAT peptide [HV3-TAT, reference compound] | significantly fewer fragmented mitochondria | improved | improved | improved | significantly extending survival | ~4% | longer clasping time than P1 treated mice
